These are literature values, as cited in US9315472B2, “1,3,5-triazinane-2,4,6-trione derivatives and uses thereof” (Massachusetts Institute of Technology, priority 2013, dated 2016).

Like-named read-outs stand apart in the source and are kept apart here.

The conditions of series [1]: mouse, in vivo, po.
For series [2] the following is noted: rat, in vivo, po.

On to `O=c1n(CC2CO2)c(=O)n(CC2CO2)c(=O)n1CC1CO1` (centres unmarked) [Compound 1], for which the tolerability entry in series [1] and in series [2] was “tolerated” in each case.
